# Results: the SangsterLogP compilation
row,logP,Structure (SMILES)
1,9.25,CCCCCCCCCCC(CCC)c1ccccc1 (stereo not drawn)
2,9.16,CCCCCCCCCC(CCCC)c1ccccc1 (stereo not drawn)
3,8.56,CCCCCCCC(CCCCC)c1ccccc1 (stereo not drawn)
4,8.07,CCCCCCCCC(CCC)c1ccccc1 (stereo not drawn)
5,8.01,CCCCCCCC(CCCC)c1ccccc1 (stereo not drawn)
6,7.45,CCCCCCC(CCCC)c1ccccc1 (stereo not drawn)
7,9.16,CCCCCCCCC(CCCCC)c1ccccc1 (stereo not drawn)
8,8.62,CCCCCCCCCC(CCC)c1ccccc1 (stereo not drawn)
9,6.9,CCCCCC(CCCC)c1ccccc1 (stereo not drawn)
10,8.56,CCCCCCCCC(CCCC)c1ccccc1 (stereo not drawn)
11,8.01,CCCCCCC(CCCCC)c1ccccc1 (stereo not drawn)

# Second part, the compound before the results:
row,Structure (SMILES),logP
1,CCCCCCCCC(C)c1ccccc1 (stereo not drawn),7.06
2,CCCCCCCC(CC)c1ccccc1 (stereo not drawn),7
3,CCCCCCCCCCCC(C)c1ccccc1 (stereo not drawn),8.77
4,CCCCCCC(CCC)c1ccccc1 (stereo not drawn),7
5,CCCCCCCCCCCc1ccccc1,8.14
6,CCCCCCCCCCCCCc1ccccc1,9.36
7,CCCCCC(CCCCC)c1ccccc1,7.45
8,CCCCCCCCCCC(CC)c1ccccc1 (stereo not drawn),8.65
9,CCCCCCCCCC(CC)c1ccccc1 (stereo not drawn),8.1
10,CCCCCCCC(CCC)c1ccccc1 (stereo not drawn),7.59
11,CCCCCCCCCCCCCCc1ccccc1,9.95
12,CCCCCCCCCCCC(CC)c1ccccc1 (stereo not drawn),9.29
13,CCCCCCCCCCCCc1ccccc1,8.65
14,CCCCCCCCCCCCC(C)c1ccccc1 (stereo not drawn),9.29
15,CCCCCCCCCCC(C)c1ccccc1 (stereo not drawn),8.19
16,CCCCCCCCCC(C)c1ccccc1 (stereo not drawn),7.63
17,CCCCCCCCC(CC)c1ccccc1 (stereo not drawn),7.53
